Experimental data as given in patent US20250129104A1, “7H-PYRROLO[2,3-D]PYRIMIDINES AND PREPARATION AND USES THEREOF” (BioSplice Therapeutics, Inc., priority 2021, published 2025).

target: recombinant DYRK1A kinase (Homo sapiens (Human), UniProt Q13627); test: DYRK1A kinase assay (Ser/Thr 18 peptide Z-lyte FRET assay); assay type: biochemical; conditions: DYRK1A kinase activity; 15 μM ATP, 1 h room temperature; method text calls the value IC50
Method: Representative compounds were screened using the assay procedure for DYRK1A kinase activity as described below.
Each compound was dissolved in DMSO as a 10 mM stock and used to prepare compound source plates. Serial dilution (1:3, 11-point dose-response curves from 10 μM to 0.00016 μM) and compound transfer was performed using the ECHO 550 (Labcyte, Sunnyvale, CA) into 1536-well black-walled round bottom plates (Corning).
The DYRK1A kinase assay was run using the Ser/Thr 18 peptide Z-lyte assay kit according to manufacturer's instructions (Life Technologies—a Division of Thermo-Fisher). This is a non-radioactive assay using fluorescence resonance energy transfer (FRET) between coumarin and fluorescein to detect kinase activity which is represented as a ratio of coumarin emission/fluorescein emission.
Briefly, recombinant DYRK1A kinase, ATP and Ser/Thr peptide 18 were prepared in 1× Kinase buffer to final concentrations of 0.25 μg/mL, 15 μM, and 4 μM respectively. The mixture was allowed to incubate with the representative compounds for one hour at room temperature. All reactions were performed in duplicate. Unphosphorylated (“0% Control”) and phosphorylated (“100% control”) forms of Ser/Thr 18 served as control reactions. Additionally, an 11-point dose-response curve of Staurosporine (1 uM top) was run to serve as a positive compound control.
After incubation, Development Reagent A was diluted in Development Buffer then added to the reaction and allowed to further incubate for one hour at room temperature. The plate was read at Ex 400 Em […] to detect the coumarin signal and Ex 400 Em 520 to measure the signal (EnVision Multilabel Plate Reader, PerkinElmer).
The Emission ratio (Em) was calculated as a ratio of the coumarin (C) emission signal (at 445 nm)/Fluorescein (F) emission signal (at 520 nm). The percent phosphorylation was then calculated using the following formula: [1−((Em ratio×F100%)−C100%)/((C0%−C100%)+(Em ratio×(F100%−F0%)))]. Dose-response curves were generated, and inhibitory concentration (IC50) values were calculated using non-linear regression curve fit in the Dotmatics' Studies Software (Bishops Stortford, UK).

Row | SMILES | EC50 [nM]
1 | CO[C@H]1CC[C@H](NC(=O)c2cnn3ccc(-c4c[nH]c5nc(C6CC6)ncc45)cc23)CC1 [Compound 1465, 5-(2-Cyclopropyl-7H-pyrrolo[2,3-d]pyrimidin-5-yl)-N-(trans-4-methoxycyclohexyl)pyrazolo[1,5-a]pyridine-3-carboxamide] | 6.7
2 | COc1ccc(-c2c[nH]c3nc(NC4CCN(S(C)(=O)=O)CC4)ncc23)c(OC)c1 [Compound 2, 5-(2,4-Dimethoxyphenyl)-N-(1-(methylsulfonyl)piperidin-4-yl)-7H-pyrrolo [2,3-d]pyrimidin-2-amine] | 43.8
3 | CC(C)(F)CNc1ncc2c(-c3ccc4ncccc4c3)c[nH]c2n1 [Compound 1869, N-(2-Fluoro-2-methylpropyl)-5-(quinolin-6-yl)-7H-pyrrolo[2,3-d]pyrimidin-2-amine] | 4
4 | Cc1nc2ccc(-c3c[nH]c4nc(C5CC5)ncc34)c(F)c2n1C(C)C [Compound 540, 2-Cyclopropyl-5-(7-fluoro-1-isopropyl-2-methyl-1H-benzo[d]imidazol-6-yl)-7H-pyrrolo[2,3-d]pyrimidine] | 25.5
5 | c1cc2nc(-c3c[nH]c4nc(NC5CCOCC5)ncc34)ccn2n1 [Compound 1669, 5-(Pyrazolo[1,5-a]pyrimidin-5-yl)-N-(tetrahydro-2H-pyran-4-yl)-7H-pyrrolo [2,3-d]pyrimidin-2-amine] | 6.1
6 | CC(C)(C)CNc1ncc2c(-c3ccc4ncccc4c3)c[nH]c2n1 [Compound 1867, N-Neopentyl-5-(quinolin-6-yl)-7H-pyrrolo[2,3-d]pyrimidin-2-amine] | 69.7
7 | c1cnc2sc(-c3c[nH]c4ncncc34)nc2c1 [Compound 98, 2-(7H-Pyrrolo[2,3-d]pyrimidin-5-yl)thiazolo[5,4-b]pyridine] | 22.1
8 | CC(C)(C)CNc1ncc2c(-c3ccn4nccc4n3)c[nH]c2n1 [Compound 1646, N-Neopentyl-5-(pyrazolo[1,5-a]pyrimidin-5-yl)-7H-pyrrolo[2,3-d]pyrimidin-2-amine] | 19.1
9 | CN1CCC(CNc2ncc3c(-c4ccc5c(c4)OCCNC5=O)c[nH]c3n2)CC1 [Compound 1758, 8-(2-(((1-Methylpiperidin-4-yl)methyl)amino)-7H-pyrrolo[2,3-d]pyrimidin-5-yl)-3,4-dihydrobenzo[f][1,4]oxazepin-5(2H)-one] | 7.3
10 | O=C(c1cnn2ccc(-c3c[nH]c4nc(C5CCC5)ncc34)cc12)N1CCCCC1 [Compound 1205, (5-(2-Cyclobutyl-7H-pyrrolo[2,3-d]pyrimidin-5-yl)pyrazolo[1,5-a]pyridin-3-yl)(piperidin-1-yl)methanone] | 259

Other lines, results leading:

Row | EC50 [nM] | SMILES
11 | 58.8 | CNc1ncc2c(-c3ccn4ncc(C(=O)N5CCN(C)CC5)c4c3)c[nH]c2n1 [Compound 2032, (5-(2-(Methylamino)-7H-pyrrolo[2,3-d]pyrimidin-5-yl)pyrazolo[1,5-a]pyridin-3-yl)(4-methylpiperazin-1-yl)methanone]
12 | 3.9 | [2H]C([2H])([2H])O[C@H]1CC[C@@H](Nc2ncc3c(-c4cc(F)c5nccn5c4)c[nH]c3n2)CC1 [Compound 2180, 5-(8-Fluoroimidazo[1,2-a]pyridin-6-yl)-N-(cis-4-(methoxy-d3)cyclohexyl)-7H-pyrrolo[2,3-d]pyrimidin-2-amine]
13 | 74.9 | COC[C@@H](C)Nc1nc(OC)c2c(-c3ccc4nccn4c3)c[nH]c2n1 [Compound 2175, (R)-5-(Imidazo[1,2-a]pyridin-6-yl)-4-methoxy-N-(1-methoxypropan-2-yl)-7H-pyrrolo[2,3-d]pyrimidin-2-amine]
14 | 3 | CCOc1nc(N[C@H]2CC[C@@H](O)CC2)nc2[nH]cc(-c3cc(F)c4nccn4c3)c12 [Compound 2190, cis-4-((4-Ethoxy-5-(8-fluoroimidazo[1,2-a]pyridin-6-yl)-7H-pyrrolo[2,3-d]pyrimidin-2-yl)amino)cyclohexan-1-ol]
15 | 170 | COc1nc(NC2CCC(F)(F)CC2)nc2[nH]cc(-c3ccc4nnn(CC(F)F)c4c3)c12 [Compound 2198, N-(4,4-Difluorocyclohexyl)-5-(1-(2,2-difluoroethyl)-1H-benzo[d][1,2,3]triazol-6-yl)-4-methoxy-7H-pyrrolo[2,3-d]pyrimidin-2-amine]
16 | 0.6 | COc1nc(N[C@@H]2[C@@H]3COC[C@@H]32)nc2[nH]cc(-c3ccc4nnn(C)c4c3)c12 [Compound 3128, N-((1R,5S,6r)-3-Oxabicyclo[3.1.0]hexan-6-yl)-4-methoxy-5-(1-methyl-1H-benzo[d][1,2,3]triazol-6-yl)-7H-pyrrolo[2,3-d]pyrimidin-2-amine]
17 | 1.6 | COc1nc(N[C@H]2CC[C@@](C)(O)CC2)nc2[nH]cc(-c3ccc4nccn4c3)c12 [Compound 2233, cis-4-((5-(Imidazo[1,2-a]pyridin-6-yl)-4-methoxy-7H-pyrrolo[2,3-d]pyrimidin-2-yl)amino)-1-methylcyclohexan-1-ol]
18 | 8.5 | CCO[C@H]1CC[C@@H](Nc2ncc3c(-c4ccn5nccc5n4)c[nH]c3n2)CC1 [Compound 2162, N-(cis-4-Ethoxycyclohexyl)-5-(pyrazolo[1,5-a]pyrimidin-5-yl)-7H-pyrrolo [2,3-d]pyrimidin-2-amine]
19 | 3.4 | [2H]C([2H])([2H])O[C@H]1CC[C@@H](Nc2nc(OC)c3c(-c4ccn5nccc5c4)c[nH]c3n2)CC1 [Compound 2210, 4-Methoxy-N-(cis-4-(methoxy-d3)cyclohexyl)-5-(pyrazolo[1,5-a]pyridin-5-yl)-7H-pyrrolo[2,3-d]pyrimidin-2-amine]
20 | 0.7 | Cn1nnc2ccc(-c3c[nH]c4nc(N[C@H]5CC[C@@](C)(O)CC5)ncc34)cc21 [Compound 3643, (1s,4s)-1-Methyl-4-((5-(1-methyl-1H-benzo[d][1,2,3]triazol-6-yl)-7H-pyrrolo[2,3-d]pyrimidin-2-yl)amino)cyclohexan-1-ol]
21 | 12.8 | CN1CCN(c2cc(Nc3ncc4c(-c5ccn6ncc(-c7cccnc7)c6c5)c[nH]c4n3)ccn2)CC1 [Compound 2031, N-(2-(4-methylpiperazin-1-yl)pyridin-4-yl)-5-(3-(pyridin-3-yl)pyrazolo[1,5-a]pyridin-5-yl)-7H-pyrrolo[2,3-d]pyrimidin-2-amine]
22 | 1.1 | COc1nc(NC2CCC3(CC2)COC3)nc2[nH]cc(-c3ccc4nnn(C)c4c3)c12 [Compound 3133, 4-Methoxy-5-(1-methyl-1H-benzo[d][1,2,3]triazol-6-yl)-N-(2-oxaspiro[3.5]nonan-7-yl)-7H-pyrrolo[2,3-d]pyrimidin-2-amine]
23 | 5.1 | Fc1cc(-c2c[nH]c3nc(N[C@H]4CC[C@@H](OCC(F)F)CC4)ncc23)cn2ccnc12 [Compound 2181, N-(cis-4-(2,2-Difluoroethoxy)cyclohexyl)-5-(8-fluoroimidazo[1,2-a]pyridin-6-yl)-7H-pyrrolo[2,3-d]pyrimidin-2-amine]
24 | 10.5 | [2H]C([2H])([2H])O[C@H]1CC[C@@H](Nc2ncc3c(-c4ccc5nccnc5c4)c[nH]c3n2)CC1 [Compound 2173, N-(cis-4-(Methoxy-d3)cyclohexyl)-5-(quinoxalin-6-yl)-7H-pyrrolo[2,3-d]pyrimidin-2-amine]
25 | 12.9 | CCOc1nc(N[C@H](C)C(F)(F)F)nc2[nH]cc(-c3ccn4nccc4c3)c12 [Compound 2218, (R)-4-Ethoxy-5-(pyrazolo[1,5-a]pyridin-5-yl)-N-(1,1,1-trifluoropropan-2-yl)-7H-pyrrolo[2,3-d]pyrimidin-2-amine]
